Legend:
Format in all cases: cell-based, human
T4302 CD133+ cells = assay: Caspase 3/7 activation (apoptosis); conditions: 100 nM, day 3
Experimental: (A) T4302 CD133+ GBM stem cells were enriched from freshly collected subcutaneous xenograft tumors, cultured in stem cell media. Cells were left unirradiated or irradiated at 3 Gy. The relative mRNA levels of Hes2 were determined by quantitative real-time PCR at the time points as indicated. (B) T4302 CD133+ cells were pre-treated with vehicle (DMSO), 2 μM DAPT or 0.5 μM L685,458 for 4 hours and irradiated as indicated. Cells were then plated to form neurospheres. Fourteen days after plating, neurospheres containing more than 50 cells were scored. To determine the surviving fractions, the number of neurosphere at each radiation dose was normalized to that of the corresponding sham-irradiated group. (C) T4302 CD133+ cells were treated with GSIs±radiation as indicated. Relative caspase 3/7 activities were determined by normalizing caspase activities to the corresponding cell numbers. (D), (E) T4302 CD133+ cells were infected with lentivirus directing expression of non-targeting shRNA or shRNAs specific to Notch1 or Notch2 (KD-Notch1 or KD-Notch2), and selected with puromycin. Relative caspase 3/7 activities and clonogenic survival were determined as described above. (F) T4302 CD133+ cells were infected with control lentivirus or lentivirus directing expression of NICD2. Clonogenic survival was determined as described above. *: p<0.05 by Student's t-test; #: p<0.01 by one-way ANOVA.
(A, B) T4302 CD133+ cells were treated with 100 nM RO4929097 (GSI) and/or 100 nM tipifarnib (FTI) for 4 hours prior to 3 Gy radiation. (A) Cell growth on day 5 and (B) caspase 3/7 activation on day 3 were determined as described in FIG. 4. #: p<0.001 by one-way ANOVA, combo vs. single agents. (C) The effects of GSIs and FTI against growth of T4302 CD133− cells were determined as described in panel A. (D, E) T4302 CD133+ cells were treated with GSI, FTI, or a 1:1 mixture at different concentrations (ranging from 3000 nM to ˜0.5 nM, 1:3 dilution)±3 Gy radiation. Cell viability was determined at 5 days after treatment in comparison to vehicle-treated groups. […] (F) T4302 CD 133+ cells were treated by GSI±FTI with a 2-fold dilution. Neurospheres were countered on day 10, and normalized to the vehicle-treated group.

HIF1α and HIF2α = assay: Immunoblot of HIF1α/HIF2α under hypoxia in T4302 CD133+ cells; conditions: 200 nM 24 h, then 2% O2 16 h
Experimental: (A) T4302 CD133+ cells were treated with 200 nM RO4929097 (GSI), and irradiated 4 hours later. Cells were cultured for two days and lysed for immunoblotting. (B) T4302 CD133+ cells were treated with 200 nM GSI or FTI±radiation. Cells were lysed 2 days after treatment. (C) T4302 CD133+ cells were treated with 200 nM GSI±FTI for 24 hours, and left under normoxia or in 2% O2 for 16 hours before being lysed for immunoblotting.

Ras = assay: Active Ras pull-down assay in T4302 CD133+ cells; conditions: 200 nM; after radiation exposure
Experimental: (A) T4302 CD133+ cells were infected with NICD2-lentivirus and treated with 2 μM DAPT±3 Gy radiation. Cells were collected at 24 or 48 hours after treatment. Protein levels of phospho-s473 Akt, total Akt and actin were blotted. (B) Control CD133+ cells or NICD2-expressing cells were pre-treated with 10 μM PI3K inhibitor (LY294002), or 50 μM Akt inhibitor (SH-6) for 4 hours prior to radiation. Relative caspase 3/7 activity was determined at 48 hours after radiation as described in FIG. 3C. (C) T4302 CD133+ cells were treated with 200 nM RO4929097 (GSI)±3 Gy. Active Ras levels were determined by a Ras Pull Down Assay kit using a pan-Ras antibody (Pierce). (D, E) T4302 cells were infected with H-Ras V12-lentivirus. Cells were treated with 200 nM RO4929097 (GSI)±3 Gy. Growth of cells was determined at day 5 after treatment (CellTiter-Glo assay, Promega). Relative caspase 3/7 activity was determined at 48 hours after treatment. […] Equal amounts of protein were resolved by SDS-PAGE and analyzed by immunoblotting with indicated antibodies. *: p<0.05 by Student's t-test.
Potential mechanisms that mediate Notch-dependent Akt activation were examined next. […] Using an active Ras pull-down assay kit (Pierce), the activation status of Ras signaling can be determined as the amount of Ras-GTP co-purified with a GST-tagged Ras-binding domain of c-Raf. […]

CC(C)(C(=O)NCC(F)(F)C(F)(F)F)C(=O)N[C@@H]1C(=O)Nc2ccccc2-c2ccccc21 [RO4929097]
caspase 3/7 activation, in words (T4302 CD133+ cells; absence of radiation): without apparent activation of apoptosis | increase of caspase 3/7 activity compared with the sham-treated group (T4302 CD133+ cells; following 3-Gy radiation): approximately 2 fold | HIF1α and HIF2α levels upon hypoxia stimulation (HIF1α and HIF2α): moderate reduction | active Ras levels (Ras): decreased active Ras levels
